From patent publication US6448288B1, “Cannabinoid drugs” (University of Massachusetts, priority 2000, dated 2002)
Where two headings read alike, the source gives them in different places.

Legend:
[1] = Stereospecificity of inhibition of cell proliferation (D-isomer vs L-isomer); format: cell-based; settings: 25 μM dose, preparation 95% enriched in D-isomer, p<0.001, FIG. 2
U118 = test: MTT assay, human cancer cell line U118 (brain); format: cell-based; settings: U118, 25 μM, 48 hour MTT assay; for inhibition at 25 µM: Homo sapiens, read-out: Percent inhibition of human cancer cell line growth
U373 = test: MTT assay, human cancer cell line U373 (brain); format: cell-based; settings: U373, 25 μM, 48 hour MTT assay; for inhibition at 25 µM: Homo sapiens, U373 MG, read-out: Percent inhibition of human cancer cell line growth
PC3 = test: MTT assay, human cancer cell line PC3 (prostate); format: cell-based; settings: PC3, 25 μM, 48 hour MTT assay; for inhibition at 25 µM: Homo sapiens, PC-3, read-out: Percent inhibition of human cancer cell line growth
C6 glioma cells [2] = test: MTT cell proliferation assay, C6 glioma cells; format: cell-based; settings: for IC50: MTT assay, FIG. 1, read-out: IC50, inhibition of C6 glioma cells; for inhibition at 25 µM: 48 h, two days, three different experiments
[3] = system: human cell lines derived from a variety of cancer types (brain, breast, bladder, lung, and prostate); test: MTT assay, all ten human cancer cell lines together; format: cell-based; settings: for inhibition at 25 µM: read-out: inhibition levels (mean±SD)
C6 cells [4] = test: Cell size and refractile bodies by phase microscopy, C6 cells; format: cell-based; settings: for cells with one or more refractile bodies / mean number of refractile bodies per cell: C6 cells, after 48 hours
Du145 = test: MTT assay, human cancer cell line Du145 (prostate); format: cell-based; settings: Du145, 25 μM, 48 hour MTT assay; for inhibition at 25 µM: Homo sapiens, DU-145, read-out: Percent inhibition of human cancer cell line growth
HT1376 = test: MTT assay, human cancer cell line HT1376 (bladder); format: cell-based; settings: HT1376, 25 μM, 48 hour MTT assay; for inhibition at 25 µM: Homo sapiens, HT-1376, read-out: Percent inhibition of human cancer cell line growth
HS578T = test: MTT assay, human cancer cell line HS578T (breast); format: cell-based; settings: 48 hour MTT assay; for inhibition at 25 µM: Homo sapiens, Hs-578T, read-out: Percent inhibition of human cancer cell line growth
U87 = test: MTT assay, human cancer cell line U87 (brain); format: cell-based; settings: U87, 25 μM, 48 hour MTT assay; for inhibition at 25 µM: Homo sapiens, U-87 MG, read-out: Percent inhibition of human cancer cell line growth
Calu6 = test: MTT assay, human cancer cell line Calu6 (lung); format: cell-based; settings: Calu6, 25 μM, 48 hour MTT assay; for inhibition at 25 µM: Homo sapiens, Calu-6, read-out: Percent inhibition of human cancer cell line growth
J82 = test: MTT assay, human cancer cell line J82 (bladder); format: cell-based; settings: J82, 25 μM, 48 hour MTT assay; for inhibition at 25 µM: Homo sapiens, read-out: Percent inhibition of human cancer cell line growth
A172 = test: MTT assay, human cancer cell line A172 (brain); format: cell-based; settings: A172, 25 μM, 48 hour MTT assay; for inhibition at 25 µM: Homo sapiens, A 172, read-out: Percent inhibition of human cancer cell line growth
W138 cells = test: Refractile bodies by phase microscopy, W138 cells; format: cell-based; settings: same length of time and dosage
C6 glioma cells [5] = test: Flow cytometry/cell cycle analysis; format: cell-based; settings: 25 μM
Experimental: Flow cytometry/cell cycle analysis. For flow cytometry, cells were grown in low serum (0.5%) for two days to synchronize cells in G0/G1, after which they were placed in high serum (10%) for two days. The cells were then labeled with propidium iodide and fixed in 4% paraformaldehyde. Cells were examined using a MoFlo Facs sorter for DNA content.

Protein kinase C (PKC) = Protein kinase C (PKC) assay in C6 cells; format: cell-based; settings: 25 μM
Experimental: Protein kinase C (PKC) assay. Cells were transferred into MEM media (0.5% serum) and cultured overnight. The next day, cells were treated with either DMSO or 25 μM ajulemic acid for the specified incubation time, after which the plates were trypsinized. 5×10^6 trypsinized cells were assayed for PKC activity using a kit (Calbiochem, cat. no. 53984).

[6] = system: human glioma cell line U87; test: In vivo subcutaneous U87 tumor model in nude mice; set-up: species or system male nu/nu BALBc mice
Experimental: In vivo subcutaneous model. 10^6 U87 cells were injected into the right […] of male nu/nu BALBc mice (Charles River). Two days after inoculation, the mice received either 0.1 mg/kg ajulemic acid in 0.05 ml of safflower oil, or 0.05 ml safflower oil by oral administration. Thereafter, identical dosings were performed on each Monday, Wednesday, and Friday. When visible tumors appeared, the size of the tumors were estimated by averaging the values of two roughly perpendicular diameters measurements. Visible tumors were measured on the days of drug administration.

C6 glioma cells [7] = test: Co-incubation of C6 glioma cells with a specific CB1 antagonist; format: cell-based; settings: 3.2 μM of a specific CB1 antagonist
C6 glioma cells [8] = test: Electron microscopy and trypan blue exclusion of treated cells; format: cell-based
C6 cells [9] = test: Lipid incorporation assay (14C-arachidonic acid); format: cell-based; settings: 25 μM, 48 hours
WI38 cells = test: Cell proliferation assay, normal fibroblast cell line WI38; format: cell-based, rat; settings: WI-38, 48 h, two days, three different experiments
[10] = 48 hours, mean over the ten human lines
[11] = two days in 10% serum after synchronization
[12] = two days in 10% serum after synchronization, listed as AJA

For `CCCCCCC(C)(C)c1cc(O)c2c(c1)OC(C)(C)[C@@H]1CC=C(C(=O)O)C[C@@H]21` (single isomer, unassigned) [D-isomer of ajulemic acid], the “potency of D-isomer compared to L-isomer of ajulemic acid” value [1] was “marked decrease in the potency”.

For `CCCCCc1cc(O)c2c(c1)OC(C)(C)[C@@H]1CC=C(C(=O)O)C[C@@H]21` [THC-11-oic acid], the “Percent inhibition of human cancer cell line growth” value (from here on “Percent inhibition”) (U118) was 14 ± 3%, the “Percent inhibition” value (U373) was 0% and the “Percent inhibition” value (PC3) was 1 ± 1%. For the same molecule, the IC50 (C6 glioma cells [2]) was 20 µM, the “inhibition levels (mean±SD)” value ([3]; 25 μM, 48 hours, mean over the ten human lines) was 13.1±18.5% and the “refractile bodies noted (in words)” value (C6 cells [4]; C6 glioma cells, 25 μM, 48 hours) was “no refractile bodies”. For the same molecule, the “Percent inhibition” value (Du145) was 7 ± 3%, the “Percent inhibition” value (HT1376) was 21 ± 12% and the “Percent inhibition” value (HS578T; 25 μM) was 2 ± 1%. For the same molecule, the “Percent inhibition” value (U87) was 5 ± 1%, the “Percent inhibition” value (Calu6) was 19 ± 5% and the “Percent inhibition” value (J82) was 1 ± 1%. For the same molecule, the “Percent inhibition” value (A172) was 61 ± 2%.

In the case of `CCCCCCC(C)(C)c1cc(O)c2c(c1)OC(C)(C)[C@@H]1CC=C(C(=O)O)C[C@@H]21` [ajulemic acid, 1′,1′-dimethylheptyl-Δ^8-THC-11-oic acid], the inhibition at 25 µM (U118) is reported as 60 ± 2%, the inhibition at 25 µM (U373) is reported as 34 ± 1% and the “refractile bodies noted (in words)” value (W138 cells) is reported as “no refractile bodies”. The inhibition at 25 µM (PC3) was 69 ± 2%, the inhibition at 25 µM (C6 glioma cells [2]) was 65% and the IC50 (C6 glioma cells [2]; C6 glioma) was 55 µM. The “effectiveness compared to THC” value ([3]; 25 μM, p<0.05, in six of the ten lines tested) was “significantly more effective”, the inhibition at 25 µM [3, 10] was 61.3 ± 12.1% and the “rate of apoptosis (sub-G0 cells)” value (C6 glioma cells [5]; two days) was “not increased”. The “G0/G1 (mean % ± SD)” value (C6 glioma cells [5]; [11]) was 39.1 ± 1.3 %, the “G2/M (mean % ± SD)” value (C6 glioma cells [5]; [11]) was 32.3% and the “S (mean % ± SD)” value (C6 glioma cells [5]; [11]) was 13.0%. The “G2/M (mean % ± SD)” value (C6 glioma cells [5]; [12]) was 32.3 ± 3.0 %, the “S (mean % ± SD)” value (C6 glioma cells [5]; [12]) was 13.0 ± 2.3 % and the “onset of PKC activity increase” value (Protein kinase C (PKC)) was “increased within five minutes”. For the same molecule, the “PKC activity versus control” value (Protein kinase C (PKC); for one hour) was “approximately two-fold above that of control”, the “appearance and size of tumors (in words)” value ([6]; 0.1 mg/kg thrice weekly, FIG. 4) was “delay in both the appearance and size of tumors” and the mean tumor diameter ([6]; day 25 post-inoculation, 0.1 mg/kg oral thrice weekly, n=5, p=0.015) was 3.8±8.5 mm. The “change of effect on co-incubation with CB1 antagonist (in words)” value (C6 glioma cells [7]) was “slight potentiation”, the “recovery upon drug removal” value (C6 glioma cells [8]) was “recover quickly upon drug removal” and the “state of treated cells under electron microscopy” value (C6 glioma cells [8]) was “neither apoptotic nor necrotic”. For the same molecule, the “viability rate by trypan blue exclusion” value (C6 glioma cells [8]; treated cells) was greater than 95%, the “content of tri- and di-glyceride versus controls” value (C6 cells [9]) was “over three-fold greater” and the “neutral lipids versus basal levels” value (C6 cells [9]; p<0.05 vs control, FIG. 3) was “significant increase above basal levels”. The “cells with one or more refractile bodies” value (C6 cells [4]) was 83%, the “mean number of refractile bodies per cell” value (C6 cells [4]) was 1.78±1.6 per cell and the cell size (C6 cells [4]; after 48 hours of exposure) was “marked increase in cell size”. For the same molecule, the inhibition at 25 µM (Du145) was 74 ± 2%, the inhibition at 25 µM (HT1376) was 60 ± 2% and the inhibition at 25 µM (HS578T) was 60 ± 2%. For the same molecule, the inhibition at 25 µM (U87) was 54 ± 2%, the inhibition at 25 µM (Calu6) was 69 ± 3% and the inhibition at 25 µM (J82) was 57 ± 3%. It also gave an inhibition at 25 µM (A172) of 76 ± 1% and an inhibition at 25 µM (WI38 cells) of 44%.

Molecule `CCCCCc1cc(O)c2c(c1)OC(C)(C)[C@@H]1CCC(C)=C[C@@H]21` [Δ^9-THC, tetrahydrocannabinol] has an inhibition at 25 µM (U118) of 39 ± 5%, an inhibition at 25 µM (U373) of 0% and an inhibition at 25 µM (PC3) of 72 ± 2%. For the same molecule, the inhibition at 25 µM (C6 glioma cells [2]) was 50%, the IC50 (C6 glioma cells [2]; C6 glioma) was 10 µM and the inhibition at 25 µM [3, 10] was 39.4 ± 22%. For the same molecule, the “decrease in potency on co-incubation with CB1 antagonist” value (C6 glioma cells [7]) was 150%, the “cells with one or more refractile bodies” value (C6 cells [4]) was 27% and the “mean number of refractile bodies per cell” value (C6 cells [4]) was 0.22±0.5 per cell. The inhibition at 25 µM (Du145) was 55 ± 7%, the inhibition at 25 µM (HT1376) was 23 ± 5% and the inhibition at 25 µM (HS578T) was 52 ± 5%. The inhibition at 25 µM (U87) was 20 ± 5%, the inhibition at 25 µM (Calu6) was 28 ± 5% and the inhibition at 25 µM (J82) was 63 ± 6%. For the same molecule, the inhibition at 25 µM (A172) was 42 ± 5% and the inhibition at 25 µM (WI38 cells) was 66%.
